Results taken from ChEMBL document CHEMBL5236655, “Role of symmetry in 3,3-diphenyl-1,3-dihydroindol-2-one derivatives as inhibitors of translation initiation” (Bioorg Med Chem Lett, 2023).

What was measured:
[1] = target: Interferon-induced, double-stranded RNA-activated protein kinase (Homo sapiens) (UniProt P19525); experiment: Induction of eIF2alpha phosphorylation (unknown origin) assessed as fold increase in ATF-4 stimulation at 20 uM by dual luciferase reporter assay; settings: filed as activator
Interferon-induced, double-stranded RNA-activated protein kinase (Homo sapiens), sequence (P19525 whole entry): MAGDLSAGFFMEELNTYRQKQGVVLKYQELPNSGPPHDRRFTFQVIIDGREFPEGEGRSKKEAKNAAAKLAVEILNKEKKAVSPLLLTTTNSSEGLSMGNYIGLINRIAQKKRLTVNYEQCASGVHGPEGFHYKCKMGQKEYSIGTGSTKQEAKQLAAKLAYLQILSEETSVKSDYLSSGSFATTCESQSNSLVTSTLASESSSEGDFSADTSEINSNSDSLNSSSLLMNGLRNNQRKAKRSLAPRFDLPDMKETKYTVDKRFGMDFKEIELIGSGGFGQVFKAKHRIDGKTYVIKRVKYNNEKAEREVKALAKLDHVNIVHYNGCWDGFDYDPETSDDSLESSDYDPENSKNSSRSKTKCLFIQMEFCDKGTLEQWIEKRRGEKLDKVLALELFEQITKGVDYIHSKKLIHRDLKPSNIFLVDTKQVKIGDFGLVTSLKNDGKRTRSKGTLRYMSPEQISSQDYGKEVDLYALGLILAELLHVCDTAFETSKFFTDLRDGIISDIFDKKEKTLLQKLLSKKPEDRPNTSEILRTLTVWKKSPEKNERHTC

[2] = Antiproliferative activity against human CRL-2813 cells incubated for 5 days by SRB assay; format: functional, cell-based; settings: CRL2813, 120 h
[3] = Antiproliferative activity against human CRL-2351 cells incubated for 5 days by SRB assay; format: functional, cell-based; settings: CRL-2351, 120 h
[4] = target: Interferon-induced, double-stranded RNA-activated protein kinase (Homo sapiens) (UniProt P19525); experiment: Induction of eIF2alpha phosphorylation in human CRL-2813 cells assessed as fold increase in CHOP expression incubated for 6 hrs by RT-PCR analysis; format: cell-based; settings: filed as activator, dose 10.0 µM
[5] = target: Interferon-induced, double-stranded RNA-activated protein kinase (Homo sapiens) (UniProt P19525); experiment: Induction of eIF2alpha phosphorylation (unknown origin) assessed as fold increase in ATF-4 stimulation at 10 uM by dual luciferase reporter assay
[6] = target: Interferon-induced, double-stranded RNA-activated protein kinase (Homo sapiens) (UniProt P19525); experiment: Induction of eIF2alpha phosphorylation (unknown origin) assessed as fold increase in ATF-4 stimulation at 40 uM by dual luciferase reporter assay; settings: filed as activator
[7] = target: Interferon-induced, double-stranded RNA-activated protein kinase (Homo sapiens) (UniProt P19525); experiment: Induction of eIF2alpha phosphorylation (unknown origin) assessed as fold increase in ATF-4 stimulation at 2.5 uM by dual luciferase reporter assay; settings: filed as activator
[8] = target: Interferon-induced, double-stranded RNA-activated protein kinase (Homo sapiens) (UniProt P19525); experiment: Induction of eIF2alpha phosphorylation (unknown origin) assessed as fold increase in ATF-4 stimulation at 80 uM by dual luciferase reporter assay; settings: filed as activator
[9] = target: Interferon-induced, double-stranded RNA-activated protein kinase (Homo sapiens) (UniProt P19525); experiment: Induction of eIF2alpha phosphorylation (unknown origin) assessed as fold increase in ATF-4 stimulation at 5 uM by dual luciferase reporter assay; settings: filed as activator

| Compound | fold change (FC) [6] | IC50 [2] | IC50 [3] | other results |
| --- | --- | --- | --- | --- |
| CC(C)(C)c1ccc(OCCN2CCOCC2)c(C2(c3cc(C(C)(C)C)ccc3OCCN3CCOCC3)C(=O)Nc3ccccc32)c1 | – | 2400 nM | 1680 nM | fold change (FC) [1]: 4.98; fold change (FC) [4]: 3 |
| CCN(CC)CCOc1ccc(C(C)(C)C)cc1C1(c2cc(C(C)(C)C)ccc2OCCN(CC)CC)C(=O)Nc2ccccc21 | – | 1000 nM | ≤ 540 nM | fold change (FC) [5]: < 0.54 |
| CC(C)(C)c1ccc(OCCO)c(C2(c3cc(C(C)(C)C)ccc3OCCO)C(=O)Nc3ccccc32)c1 | – | 2900 nM | 2700 nM | fold change (FC) [1]: 3.42 |
| CN(C)CCOc1ccc(C(C)(C)C)cc1C1(c2cc(C(C)(C)C)ccc2O)C(=O)Nc2ccccc21 (stereo not drawn) | – | 1200 nM | 1900 nM | fold change (FC) [1]: 4.65 |
| CN(C)CCN1C(=O)C(c2cc(C(C)(C)C)ccc2OCCN2CCCC2)(c2cc(C(C)(C)C)ccc2OCCN2CCCC2)c2ccccc21 | – | 800 nM | 540 nM | fold change (FC) [7]: 11.8 |
| CC(C)(C)c1ccc(O)c(C2(c3cc(C(C)(C)C)ccc3OCCN3CCOCC3)C(=O)N(CCN3CCOCC3)c3ccccc32)c1 (stereo not drawn) | – | 2000 nM | 3600 nM | fold change (FC) [8]: 31.9 |
| CN(C)CCOc1ccc(C(C)(C)C)cc1C1(c2cc(C(C)(C)C)ccc2O)C(=O)N(CCN(C)C)c2ccccc21 (stereo not drawn) | – | 900 nM | 300 nM | fold change (FC) ([5]; filed as activator): 14.3 |
| CC(C)(C)c1ccc(O)c(C2(c3cc(C(C)(C)C)ccc3OCCN3CCOCC3)C(=O)Nc3ccccc32)c1 (stereo not drawn) | 5.69 | 1650 nM | ≤ 540 nM | fold change (FC) [4]: 3 |
| CC(C)(C)c1ccc(O)c(C2(c3cc(C(C)(C)C)ccc3OCCN3CCCC3)C(=O)N(CCN3CCCC3)c3ccccc32)c1 (stereo not drawn) | 9.09 | 7250 nM | 3600 nM | – |
| CN(C)CCN1C(=O)C(c2cc(C(C)(C)C)ccc2O)(c2cc(C(C)(C)C)ccc2O)c2ccccc21 | – | > 20000 nM | 2700 nM | fold change (FC) [1]: 7.12; fold change (FC) [4]: 3 |
| CN(C)CCN1C(=O)C(c2cc(C(C)(C)C)ccc2O)(c2cc(C(C)(C)C)ccc2OCCN2CCCC2)c2ccccc21 (stereo not drawn) | – | ≤ 540 nM | ≤ 540 nM | fold change (FC) ([5]; filed as activator): 9.08 |
| CN1CCN(CCOc2ccc(C(C)(C)C)cc2C2(c3cc(C(C)(C)C)ccc3OCCN3CCN(C)CC3)C(=O)Nc3ccccc32)CC1 | – | 740 nM | 200 nM | fold change (FC) ([5]; filed as activator): 9.7 |
| CC(C)(C)c1ccc(O)c(C2(c3cc(C(C)(C)C)ccc3OCCN3CCCCC3)C(=O)Nc3ccccc32)c1 (stereo not drawn) | – | 3350 nM | 700 nM | fold change (FC) [1]: 4.15 |
| CC(C)(C)c1ccc(OCCN2CCCC2)c(C2(c3cc(C(C)(C)C)ccc3OCCN3CCCC3)C(=O)N(CCN3CCCC3)c3ccccc32)c1 | – | 1470 nM | 550 nM | fold change (FC) [7]: 12.1 |
| CC(C)(C)c1ccc(O)c(C2(c3cc(C(C)(C)C)ccc3OCCBr)C(=O)N(CCBr)c3ccccc32)c1 (stereo not drawn) | – | 700 nM | 4600 nM | fold change (FC) [8]: 1.99 |
| CC(C)(C)c1ccc(O)c(C2(c3cc(C(C)(C)C)ccc3OCCN3CCNCC3)C(=O)Nc3ccccc32)c1 (stereo not drawn) | – | 1500 nM | 900 nM | fold change (FC) [1]: 15.1 |

| Compound | fold change (FC) [6] | IC50 [2] | IC50 [3] | other results |
| --- | --- | --- | --- | --- |
| CN(C)CCOc1ccc(C(C)(C)C)cc1C1(c2cc(C(C)(C)C)ccc2OCCN(C)C)C(=O)Nc2ccccc21 | 1.34 | 12500 nM | 10200 nM | – |
| CC(C)(C)c1ccc(O)c(C2(c3cc(C(C)(C)C)ccc3O)C(=O)Nc3ccccc32)c1 | – | 10200 nM | 2800 nM | fold change (FC) ([5]; filed as activator): 5.2; fold change (FC) [4]: 3 |
| CN1CCN(CCOc2ccc(C(C)(C)C)cc2C2(c3cc(C(C)(C)C)ccc3OCCN3CCN(C)CC3)C(=O)N(CCN3CCN(C)CC3)c3ccccc32)CC1 | – | – | 600 nM | fold change (FC) ([5]; filed as activator): 6.73 |
| CN1CCN(CCOc2ccc(C(C)(C)C)cc2C2(c3cc(C(C)(C)C)ccc3O)C(=O)Nc3ccccc32)CC1 (stereo not drawn) | – | 1400 nM | 750 nM | fold change (FC) [1]: 24.6 |
| CCN(CC)CCOc1ccc(C(C)(C)C)cc1C1(c2cc(C(C)(C)C)ccc2O)C(=O)Nc2ccccc21 (stereo not drawn) | – | 1500 nM | 600 nM | fold change (FC) [1]: 16.7 |
| CCN(CC)CCOc1ccc(C(C)(C)C)cc1C1(c2cc(C(C)(C)C)ccc2OCCN(CC)CC)C(=O)N(CCN(CC)CC)c2ccccc21 | – | 720 nM | ≤ 540 nM | fold change (FC) [7]: 14.3 |
| CN(C)CCOc1ccc(C(C)(C)C)cc1C1(c2cc(C(C)(C)C)ccc2OCCN(C)C)C(=O)N(CCN(C)C)c2ccccc21 | – | 700 nM | 500 nM | fold change (FC) [7]: 16.8 |
| CC(C)(C)c1ccc(OCCN2CCCC2)c(C2(c3cc(C(C)(C)C)ccc3OCCN3CCCC3)C(=O)Nc3ccccc32)c1 | – | 800 nM | 650 nM | fold change (FC) [9]: 13.9 |
| CC(C)(C)c1ccc(OCCN2CCNCC2)c(C2(c3cc(C(C)(C)C)ccc3OCCN3CCNCC3)C(=O)Nc3ccccc32)c1 | 11.4 | 1500 nM | 800 nM | – |
| CC(=O)OCCOc1ccc(C(C)(C)C)cc1C1(c2cc(C(C)(C)C)ccc2OCCOC(C)=O)C(=O)Nc2ccccc21 | – | 2000 nM | 2500 nM | fold change (FC) [8]: 2.07 |
| COCCOc1ccc(C(C)(C)C)cc1C1(c2cc(C(C)(C)C)ccc2OCCOC)C(=O)Nc2ccccc21 | – | 700 nM | 4600 nM | fold change (FC) [8]: 1.58 |
| CC(C)(C)c1ccc(OCCN2CCOCC2)c(C2(c3cc(C(C)(C)C)ccc3OCCN3CCOCC3)C(=O)N(CCN3CCOCC3)c3ccccc32)c1 | 10.8 | 2700 nM | 2300 nM | fold change (FC) [4]: 3 |
| CC(C)(C)c1ccc(OCCN2CCCCC2)c(C2(c3cc(C(C)(C)C)ccc3OCCN3CCCCC3)C(=O)Nc3ccccc32)c1 | – | 11600 nM | 2140 nM | fold change (FC) [8]: 5.91 |
| CC(C)(C)c1ccc(O)c(C2(c3cc(C(C)(C)C)ccc3OCCN3CCCC3)C(=O)Nc3ccccc32)c1 (stereo not drawn) | – | 10700 nM | 1000 nM | fold change (FC) ([5]; filed as activator): 2.73 |
| CC(=O)OCCOc1ccc(C(C)(C)C)cc1C1(c2cc(C(C)(C)C)ccc2O)C(=O)Nc2ccccc21 (stereo not drawn) | 8.59 | 1600 nM | 2700 nM | – |

The next lines start with results.

| fold change (FC) [6] | Compound | IC50 [2] | IC50 [3] | other results |
| --- | --- | --- | --- | --- |
| 12.9 | CC(C)(C)c1ccc(O)c(C2(c3cc(C(C)(C)C)ccc3OCCBr)C(=O)Nc3ccccc32)c1 (stereo not drawn) | 1000 nM | 2400 nM | – |
| 1.21 | COCOc1ccc(C(C)(C)C)cc1C1(c2cc(C(C)(C)C)ccc2O)C(=O)Nc2ccccc21 (stereo not drawn) | 2200 nM | 4200 nM | – |
| 10.8 | CC(C)(C)c1ccc(O)c(C2(c3cc(C(C)(C)C)ccc3OCCO)C(=O)Nc3ccccc32)c1 (stereo not drawn) | 2900 nM | 8800 nM | – |
| 4.3 | CC(C)(C)c1ccc(O)c(C2(c3cc(C(C)(C)C)ccc3O)C(=O)N(CCN3CCOCC3)c3ccccc32)c1 | 1600 nM | 2200 nM | fold change (FC) [4]: 3 |
| 9.6 | CC(C)(C)c1ccc(O)c(C2(c3cc(C(C)(C)C)ccc3O)C(=O)N(CCBr)c3ccccc32)c1 | 1400 nM | 1500 nM | – |
